Reference: the NIST ThermoML archive (doi:10.1021/je030177j)

Test: mn = molality of the nth substance listed, in mol/kg
Settings: Liquid, Capillary tube (Ostwald / Ubbelohde) method

O=S(=O)([O-])[O-].[Li+].[Li+] [lithium sulfate] + O
viscosity [mPa·s]
Settings | 100 kPa | 10000 kPa | 20000 kPa | 30000 kPa
298.15 K, m1 = 0.1 | 0.939 | – | – | –
298.15 K, m1 = 0.28 | 1.037 | – | – | –
298.15 K, m1 = 0.56 | 1.195 | 1.195 | 1.195 | 1.195
298.15 K, m1 = 0.885 | 1.411 | – | – | –
298.25 K, m1 = 0.28 | – | 1.035 | 1.035 | 1.036
298.35 K, m1 = 0.1 | – | 0.936 | 0.9361 | 0.9363
298.45 K, m1 = 0.885 | – | 1.404 | 1.404 | 1.404
303.15 K, m1 = 0.1 | 0.862 | – | – | –
303.15 K, m1 = 0.28 | 0.951 | – | – | –
303.15 K, m1 = 0.56 | 1.096 | – | – | –
303.15 K, m1 = 0.885 | 1.294 | – | – | –
306.19 K, m1 = 0.56 | – | 1.013 | 1.016 | 1.018
307.35 K, m1 = 0.885 | – | 1.17 | 1.173 | 1.176
307.93 K, m1 = 0.28 | – | 0.8517 | 0.8546 | 0.857
308.52 K, m1 = 0.1 | – | 0.7647 | 0.7659 | 0.7682
311.24 K, m1 = 0.56 | – | 0.9141 | 0.9168 | 0.9192
312.27 K, m1 = 0.28 | – | 0.778 | 0.7812 | 0.784
313.15 K, m1 = 0.1 | 0.707 | – | – | –
313.15 K, m1 = 0.28 | 0.778 | – | – | –
313.15 K, m1 = 0.56 | 0.891 | – | – | –
313.15 K, m1 = 0.885 | 1.054 | – | – | –
313.67 K, m1 = 0.1 | – | 0.6899 | 0.6927 | 0.6955
314.12 K, m1 = 0.885 | – | 1.016 | 1.019 | 1.023
321.55 K, m1 = 0.28 | – | 0.6508 | 0.6539 | 0.6569
322.35 K, m1 = 0.56 | – | 0.7352 | 0.7388 | 0.7422
322.55 K, m1 = 0.885 | – | 0.8649 | 0.8691 | 0.8731
323.15 K, m1 = 0.1 | 0.578 | – | – | –
323.15 K, m1 = 0.28 | 0.63 | – | – | –
323.15 K, m1 = 0.56 | 0.722 | – | – | –
323.15 K, m1 = 0.885 | 0.853 | – | – | –
324.55 K, m1 = 0.1 | – | 0.566 | 0.5689 | 0.5716
329.44 K, m1 = 0.28 | – | 0.567 | 0.57 | 0.5731
330.24 K, m1 = 0.885 | – | 0.7558 | 0.7598 | 0.7639
331.27 K, m1 = 0.56 | – | 0.6319 | 0.6354 | 0.6372
331.86 K, m1 = 0.1 | – | 0.5013 | 0.5035 | 0.5061
333.15 K, m1 = 0.1 | 0.49 | – | – | –
333.15 K, m1 = 0.28 | 0.532 | – | – | –
333.15 K, m1 = 0.56 | 0.61 | – | – | –
333.15 K, m1 = 0.885 | 0.718 | – | – | –
338.71 K, m1 = 0.28 | – | 0.4914 | 0.4942 | 0.4979
339.74 K, m1 = 0.1 | – | 0.4463 | 0.4491 | 0.452
340.72 K, m1 = 0.885 | – | 0.6414 | 0.6452 | 0.6494
340.73 K, m1 = 0.56 | – | 0.5456 | 0.5484 | 0.5514
343.15 K, m1 = 0.1 | 0.429 | – | – | –
343.15 K, m1 = 0.28 | 0.462 | – | – | –
343.15 K, m1 = 0.56 | 0.53 | – | – | –
343.15 K, m1 = 0.885 | 0.624 | – | – | –
343.35 K, m1 = 0.28 | – | 0.4594 | 0.4623 | 0.4653
